Test results: paper PMC4735795, “Deciphering the Receptor Repertoire Encoding Specific Odorants by Time-Lapse Single-Cell Array Cytometry” (Scientific Reports, 2016)

Key:
Experiment in all cases: GloSensor cAMP luminescence in HEK293T
Assay type in all cases: cell-based
Conditions in all cases: agonist; co-expressed Golf alpha and RTP1S; N = 12
[1] = molecular target: T1, Olfr1258 (mOR232-3) (Mus musculus, UniProt Q8VGN6)
T1 construct: gene Or4c10; full-length from mouse genomic DNA in pCI-neo; N-terminal rhodopsin and myc tags; HEK293T with co-transfected Golf alpha, RTP1S and GloSensor-22F
T1 sequence (Q8VGN6 1-311): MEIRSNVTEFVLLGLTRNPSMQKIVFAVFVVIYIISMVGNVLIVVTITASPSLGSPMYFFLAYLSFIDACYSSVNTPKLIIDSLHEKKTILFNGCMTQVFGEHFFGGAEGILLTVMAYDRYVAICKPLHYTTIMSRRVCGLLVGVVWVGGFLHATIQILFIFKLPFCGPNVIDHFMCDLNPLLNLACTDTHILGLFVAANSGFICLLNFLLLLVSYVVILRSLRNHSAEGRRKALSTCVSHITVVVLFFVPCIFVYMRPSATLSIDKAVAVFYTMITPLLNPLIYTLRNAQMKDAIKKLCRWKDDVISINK

[2] = molecular target: T2, Olfr168 (mOR271-1) (Mus musculus, UniProt A0PK36)
T2 construct: full-length from mouse genomic DNA in pCI-neo; N-terminal rhodopsin and myc tags; HEK293T with co-transfected Golf alpha, RTP1S and GloSensor-22F
T2 sequence (A0PK36 1-312): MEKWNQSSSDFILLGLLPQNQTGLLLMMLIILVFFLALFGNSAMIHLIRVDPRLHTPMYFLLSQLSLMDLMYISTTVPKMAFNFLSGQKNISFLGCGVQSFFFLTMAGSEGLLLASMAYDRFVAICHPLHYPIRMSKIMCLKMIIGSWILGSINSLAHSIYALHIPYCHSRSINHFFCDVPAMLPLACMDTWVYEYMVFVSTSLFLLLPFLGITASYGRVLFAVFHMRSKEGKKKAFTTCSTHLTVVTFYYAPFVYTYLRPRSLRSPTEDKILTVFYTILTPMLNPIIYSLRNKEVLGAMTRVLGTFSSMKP

[3] = molecular target: T3, Olfr166 (mOR270-1) (Mus musculus, UniProt Q0VEL6)
T3 construct: full-length from mouse genomic DNA in pCI-neo; N-terminal rhodopsin and myc tags; HEK293T with co-transfected Golf alpha, RTP1S and GloSensor-22F
T3 sequence (Q0VEL6 1-312): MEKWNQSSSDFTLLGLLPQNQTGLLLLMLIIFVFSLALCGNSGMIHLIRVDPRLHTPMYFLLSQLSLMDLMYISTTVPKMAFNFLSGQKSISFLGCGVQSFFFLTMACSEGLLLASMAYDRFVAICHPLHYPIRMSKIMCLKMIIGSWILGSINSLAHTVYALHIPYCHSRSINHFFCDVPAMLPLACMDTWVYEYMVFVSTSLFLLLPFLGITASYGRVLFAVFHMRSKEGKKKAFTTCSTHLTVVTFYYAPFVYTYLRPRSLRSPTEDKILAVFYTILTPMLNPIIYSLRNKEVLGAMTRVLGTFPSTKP

[4] = molecular target: T4, Olfr45 (mOR253-2) (Mus musculus, UniProt A0JLW4)
T4 construct: full-length from mouse genomic DNA in pCI-neo; N-terminal rhodopsin and myc tags; HEK293T with co-transfected Golf alpha, RTP1S and GloSensor-22F
T4 sequence (A0JLW4 1-311): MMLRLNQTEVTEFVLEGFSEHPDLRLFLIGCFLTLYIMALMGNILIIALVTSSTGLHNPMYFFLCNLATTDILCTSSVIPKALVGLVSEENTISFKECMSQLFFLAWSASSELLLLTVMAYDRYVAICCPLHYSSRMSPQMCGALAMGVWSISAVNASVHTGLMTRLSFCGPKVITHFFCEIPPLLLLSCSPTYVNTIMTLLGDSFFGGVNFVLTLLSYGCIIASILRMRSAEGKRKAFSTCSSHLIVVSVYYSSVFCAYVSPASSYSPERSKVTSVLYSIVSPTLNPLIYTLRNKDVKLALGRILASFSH

CCC(C)=O [2-butanone]
GloSensor cAMP luminescence in HEK293T [1]: Olfr1258 was activated by 2-butanone

CCCC(C)=O [2-pentanone]
EC50 [2]: 2100 ± 600 µM

c1ccncc1 [pyridine]
GloSensor cAMP luminescence in HEK293T [3]: both Olfr45 and Olfr166 were activated by pyridine | GloSensor cAMP luminescence in HEK293T [4]: both Olfr45 and Olfr166 were activated by pyridine
